Data set [1] concerns the target T1, Testis-specific serine/threonine-protein kinase 2 (Homo sapiens, UniProt Q96PF2).
T1 sequence (Q96PF2 whole entry): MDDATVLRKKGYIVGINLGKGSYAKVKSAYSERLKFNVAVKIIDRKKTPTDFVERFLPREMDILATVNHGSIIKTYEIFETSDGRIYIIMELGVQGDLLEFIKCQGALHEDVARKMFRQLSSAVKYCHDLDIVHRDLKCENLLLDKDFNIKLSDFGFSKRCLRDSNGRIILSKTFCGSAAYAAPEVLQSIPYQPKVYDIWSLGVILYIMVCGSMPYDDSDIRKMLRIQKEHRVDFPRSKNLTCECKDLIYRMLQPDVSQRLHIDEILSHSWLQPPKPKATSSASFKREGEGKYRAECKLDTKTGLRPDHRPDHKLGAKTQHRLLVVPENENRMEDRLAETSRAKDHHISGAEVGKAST
The experiment in a line: Inhibition of TSSK2.

The target of data set [2] is Protein kinase C alpha type (Homo sapiens, UniProt P17252). In words: Inhibition of PKCA.
Data set [3] concerns the target T2, Inhibitor of nuclear factor kappa-B kinase subunit beta (Homo sapiens, UniProt O14920).
T2 sequence (O14920 whole entry): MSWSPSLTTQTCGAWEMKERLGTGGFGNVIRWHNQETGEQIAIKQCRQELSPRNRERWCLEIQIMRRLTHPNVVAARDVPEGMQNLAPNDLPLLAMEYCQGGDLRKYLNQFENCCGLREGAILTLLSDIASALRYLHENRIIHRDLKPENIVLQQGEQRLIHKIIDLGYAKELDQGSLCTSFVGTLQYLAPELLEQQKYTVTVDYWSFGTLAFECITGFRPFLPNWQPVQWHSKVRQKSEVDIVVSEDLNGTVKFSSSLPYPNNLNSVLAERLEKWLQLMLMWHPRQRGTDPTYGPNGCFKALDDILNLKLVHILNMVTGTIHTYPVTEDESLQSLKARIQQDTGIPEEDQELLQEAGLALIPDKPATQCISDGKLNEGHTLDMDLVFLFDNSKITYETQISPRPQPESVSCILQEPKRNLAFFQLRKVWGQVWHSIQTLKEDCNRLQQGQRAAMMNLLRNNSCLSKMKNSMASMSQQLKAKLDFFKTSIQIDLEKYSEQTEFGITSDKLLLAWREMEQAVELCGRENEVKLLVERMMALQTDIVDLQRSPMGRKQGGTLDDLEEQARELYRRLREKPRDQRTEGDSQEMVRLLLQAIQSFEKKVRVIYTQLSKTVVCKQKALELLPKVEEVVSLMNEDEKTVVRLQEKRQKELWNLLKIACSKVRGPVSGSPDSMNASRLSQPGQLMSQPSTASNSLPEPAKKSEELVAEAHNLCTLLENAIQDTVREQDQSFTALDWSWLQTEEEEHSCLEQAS
The experiment in a line: Inhibition of IKK-beta.

Data set [4] concerns the target Insulin-like growth factor 1 receptor (Homo sapiens, UniProt P08069). In words: Inhibition of IGF1R.
In data set [5] the target is Cyclin-dependent kinase 2 (Homo sapiens, UniProt P24941). In words: Inhibition of CDK2.
Data set [6] addresses Interleukin-1 receptor-associated kinase 4 (Homo sapiens, UniProt Q9NWZ3). The experiment in a line: Inhibition of IRAK4.
In a further data set the target is T3, Ephrin type-B receptor 4 (Homo sapiens, UniProt P54760).
T3 sequence (P54760 whole entry): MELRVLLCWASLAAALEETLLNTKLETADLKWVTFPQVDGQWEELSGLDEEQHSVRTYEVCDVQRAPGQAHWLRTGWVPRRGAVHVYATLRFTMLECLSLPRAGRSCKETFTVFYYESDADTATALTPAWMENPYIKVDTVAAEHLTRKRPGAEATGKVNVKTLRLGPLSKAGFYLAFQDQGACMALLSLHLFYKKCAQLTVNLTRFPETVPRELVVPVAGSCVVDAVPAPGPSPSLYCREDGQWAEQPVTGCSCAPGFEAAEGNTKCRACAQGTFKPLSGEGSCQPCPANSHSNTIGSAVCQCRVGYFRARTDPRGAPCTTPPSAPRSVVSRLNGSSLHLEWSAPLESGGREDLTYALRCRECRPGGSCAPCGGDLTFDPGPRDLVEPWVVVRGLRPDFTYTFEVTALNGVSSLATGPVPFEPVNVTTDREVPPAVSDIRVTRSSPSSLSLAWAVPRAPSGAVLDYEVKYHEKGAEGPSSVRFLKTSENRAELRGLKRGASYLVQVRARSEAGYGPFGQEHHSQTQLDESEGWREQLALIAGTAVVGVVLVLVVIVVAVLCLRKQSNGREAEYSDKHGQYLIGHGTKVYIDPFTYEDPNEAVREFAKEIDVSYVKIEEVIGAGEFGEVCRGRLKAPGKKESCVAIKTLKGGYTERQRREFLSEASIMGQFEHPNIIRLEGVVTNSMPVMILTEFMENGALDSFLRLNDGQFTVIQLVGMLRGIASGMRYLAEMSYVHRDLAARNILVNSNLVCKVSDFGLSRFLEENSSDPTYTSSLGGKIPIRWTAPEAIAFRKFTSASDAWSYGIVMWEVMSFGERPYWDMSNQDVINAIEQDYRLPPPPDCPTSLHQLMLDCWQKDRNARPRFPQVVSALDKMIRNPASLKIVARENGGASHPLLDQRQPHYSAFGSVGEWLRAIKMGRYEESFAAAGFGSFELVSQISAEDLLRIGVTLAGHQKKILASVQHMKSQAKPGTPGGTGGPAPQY
The experiment in a line: Inhibition of EPHB4.

The target in data set [7] is Serine/threonine-protein kinase Chk1 (Homo sapiens, UniProt O14757). In words: Inhibition of CHK1.
A short description of data set [8]: Oral bioavailability in cynomolgus monkey at 30 mg/kg. Type of data set: ADME, organism-based, Macaca fascicularis. Conditions: in vivo.
Data set [9] is described as follows: AUC (0 to 24 hrs) in cynomolgus monkey at 30 mg/kg, po. In kind it is ADME, organism-based, Macaca fascicularis. Details: time < 24 hr, dose 30 mg/kg, route oral. Conditions: plasma.
Data set [10] is described as follows: AUC (0 to 24 hrs) in Sprague-Dawley rat at 30 mg/kg, po. Type of data set: ADME, organism-based. Further details: time < 24 hr, dose 30 mg/kg, route oral. Conditions: plasma.
The nature of data set [11]: Clearance in Sprague-Dawley rat at 10 mg/kg, iv. Further details: dose 10 mg/kg, route intravenous. The following applies: in vivo. Type of data set: ADME, organism-based.
A short description of data set [12]: AUC (0 to 24 hrs) in Sprague-Dawley rat at 10 mg/kg, iv. In kind it is ADME, organism-based. Further details: time < 24 hr, dose 10 mg/kg, route intravenous. The following applies: plasma.
The nature of data set [13]: AUC (0 to 24 hrs) in CD1 mouse at 50 mg/kg, po. In kind it is ADME, organism-based. The following applies: plasma. Details: time < 24 hr, dose 50 mg/kg, route oral.
The nature of data set [14]: Clearance in CD1 mouse at 3 mg/kg, iv. Type of data set: ADME, organism-based. The following applies: in vivo. Details: dose 3 mg/kg, route intravenous.
The nature of data set [15]: AUC (0 to 24 hrs) in CD1 mouse at 3 mg/kg, iv. Further details: time < 24 hr, dose 3 mg/kg, route intravenous. In kind it is ADME, organism-based. Conditions: plasma.
Data set [16] in a line: Plasma clearance in rat. Type of data set: ADME, organism-based.
A short description of data set [17]: Oral bioavailability in Sprague-Dawley rat at 30 mg/kg. Type of data set: ADME, organism-based. The following applies: in vivo.
In another data set the target is Aurora kinase B (Homo sapiens, UniProt Q96GD4). In words: Inhibition of Aurora B in human HCT116 cells assessed as inhibition of histone H3 phosphorylation by immunofluorescence assay. Type of data set: cell-based, HCT-116.
Data set [18] in a line: AUC (0 to 6 hrs) in rat at 10 mg/kg, po. Details: time < 6 hr, dose 10 mg/kg, route oral. In kind it is ADME, organism-based. Conditions: plasma.
Data set [19] in a line: Oral bioavailability in CD1 mouse at 50 mg/kg. Type of data set: ADME, organism-based. Conditions: in vivo.
Data set [20] is described as follows: AUC in CD1 mouse at 50 mg/kg, po. Type of data set: ADME, organism-based. Details: dose 50 mg/kg, route oral. The following applies: plasma.
Data set [21] in a line: Oral AUC in Sprague-Dawley rat at 30 mg/kg, po. Type of data set: ADME, organism-based. Details: dose 30 mg/kg, route oral. Conditions: in vivo.

As usually defined, the IC50 is the concentration at which inhibition is half-maximal. Broadly, the bioavailability is the share of a dose that reaches the circulation, judged against a reference dose that is usually intravenous. As a reminder, the AUC(0-t) is exposure summed from dosing to a finite time, without extrapolation to infinity. As a reminder, the clearance is the rate of elimination divided by the concentration. The AUC is concentration integrated over time.

Sequence of Aurora kinase B (Q96GD4 whole entry): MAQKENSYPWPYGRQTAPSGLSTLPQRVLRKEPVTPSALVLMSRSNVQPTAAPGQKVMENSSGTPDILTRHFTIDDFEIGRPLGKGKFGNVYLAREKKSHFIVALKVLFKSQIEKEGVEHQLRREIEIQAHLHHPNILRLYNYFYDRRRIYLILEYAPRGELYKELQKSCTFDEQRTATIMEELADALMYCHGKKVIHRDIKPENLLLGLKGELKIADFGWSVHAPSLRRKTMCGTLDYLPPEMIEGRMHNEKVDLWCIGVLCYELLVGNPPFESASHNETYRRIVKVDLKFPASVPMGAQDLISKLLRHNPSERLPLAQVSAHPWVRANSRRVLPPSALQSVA
Sequence of Insulin-like growth factor 1 receptor (P08069 31-736 limits assumed): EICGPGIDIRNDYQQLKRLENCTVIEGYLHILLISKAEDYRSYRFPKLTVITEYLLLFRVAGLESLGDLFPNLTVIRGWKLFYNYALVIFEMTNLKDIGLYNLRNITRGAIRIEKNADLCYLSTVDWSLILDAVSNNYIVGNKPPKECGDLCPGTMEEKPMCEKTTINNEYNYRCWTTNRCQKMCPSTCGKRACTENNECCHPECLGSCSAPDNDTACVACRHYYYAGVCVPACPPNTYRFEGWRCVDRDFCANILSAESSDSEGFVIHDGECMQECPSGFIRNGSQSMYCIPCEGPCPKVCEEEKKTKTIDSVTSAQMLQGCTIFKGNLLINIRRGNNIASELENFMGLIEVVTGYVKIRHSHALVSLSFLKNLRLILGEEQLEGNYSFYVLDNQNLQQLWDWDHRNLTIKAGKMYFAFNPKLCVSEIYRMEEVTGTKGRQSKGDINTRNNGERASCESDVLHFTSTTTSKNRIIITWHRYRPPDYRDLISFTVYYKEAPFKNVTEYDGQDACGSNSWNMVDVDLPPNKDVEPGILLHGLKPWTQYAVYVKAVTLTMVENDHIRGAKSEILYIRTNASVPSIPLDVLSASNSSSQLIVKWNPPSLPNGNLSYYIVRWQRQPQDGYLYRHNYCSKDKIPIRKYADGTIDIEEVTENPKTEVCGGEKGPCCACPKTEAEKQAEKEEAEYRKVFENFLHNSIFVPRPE
Sequence of Insulin-like growth factor 1 receptor (P08069 741-1367 limits assumed): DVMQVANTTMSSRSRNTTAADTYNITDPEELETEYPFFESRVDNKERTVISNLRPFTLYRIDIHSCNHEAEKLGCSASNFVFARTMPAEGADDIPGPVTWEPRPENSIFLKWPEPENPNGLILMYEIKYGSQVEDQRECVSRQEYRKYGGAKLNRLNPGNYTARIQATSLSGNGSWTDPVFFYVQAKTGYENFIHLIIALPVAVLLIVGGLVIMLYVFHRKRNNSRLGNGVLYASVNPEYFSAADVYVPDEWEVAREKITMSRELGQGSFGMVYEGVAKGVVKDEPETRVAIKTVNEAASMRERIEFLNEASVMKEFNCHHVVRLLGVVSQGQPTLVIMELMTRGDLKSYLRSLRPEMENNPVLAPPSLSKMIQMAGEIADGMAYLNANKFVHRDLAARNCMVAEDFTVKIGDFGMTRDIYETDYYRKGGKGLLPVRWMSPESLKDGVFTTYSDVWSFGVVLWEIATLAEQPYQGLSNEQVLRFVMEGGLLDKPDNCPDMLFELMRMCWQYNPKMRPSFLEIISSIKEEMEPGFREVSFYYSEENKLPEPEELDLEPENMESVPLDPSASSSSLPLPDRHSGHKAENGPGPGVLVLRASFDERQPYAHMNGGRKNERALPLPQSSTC
Sequence of Interleukin-1 receptor-associated kinase 4 (Q9NWZ3 whole entry): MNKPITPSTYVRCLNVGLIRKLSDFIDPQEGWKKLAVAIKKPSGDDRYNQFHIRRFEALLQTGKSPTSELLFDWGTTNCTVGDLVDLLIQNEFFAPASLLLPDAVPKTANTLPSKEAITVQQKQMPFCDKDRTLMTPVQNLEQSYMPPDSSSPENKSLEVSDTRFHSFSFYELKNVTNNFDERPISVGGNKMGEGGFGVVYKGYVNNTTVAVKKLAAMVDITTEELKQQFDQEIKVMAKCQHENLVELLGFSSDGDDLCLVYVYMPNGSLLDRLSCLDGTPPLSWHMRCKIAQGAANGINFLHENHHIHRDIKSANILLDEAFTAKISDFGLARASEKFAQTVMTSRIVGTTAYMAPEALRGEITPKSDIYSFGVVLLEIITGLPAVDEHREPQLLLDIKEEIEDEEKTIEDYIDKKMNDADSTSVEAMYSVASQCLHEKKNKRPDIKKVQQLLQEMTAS
Sequence of Serine/threonine-protein kinase Chk1 (O14757 whole entry): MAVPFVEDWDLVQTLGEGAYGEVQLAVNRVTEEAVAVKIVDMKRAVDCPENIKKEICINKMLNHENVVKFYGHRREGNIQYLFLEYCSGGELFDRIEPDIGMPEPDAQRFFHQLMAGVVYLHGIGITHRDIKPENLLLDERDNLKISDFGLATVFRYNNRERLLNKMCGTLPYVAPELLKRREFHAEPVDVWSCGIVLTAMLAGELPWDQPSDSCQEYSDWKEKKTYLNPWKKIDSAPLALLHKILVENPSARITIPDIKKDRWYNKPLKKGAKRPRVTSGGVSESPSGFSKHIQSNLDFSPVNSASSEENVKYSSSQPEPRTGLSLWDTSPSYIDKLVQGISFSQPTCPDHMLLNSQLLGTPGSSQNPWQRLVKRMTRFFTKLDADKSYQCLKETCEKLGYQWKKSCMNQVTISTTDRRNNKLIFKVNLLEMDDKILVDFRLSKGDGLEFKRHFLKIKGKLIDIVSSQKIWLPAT

In the case of `Cl.[2H]C([2H])(c1cc(Nc2nc(C)cn3c(-c4cn[nH]c4)cnc23)sn1)N1CCC(F)(F)C1`, the half-maximal inhibitory concentration (IC50) in [1] was greater than 100 nM; in data set [2], greater than 100 nM; in data set [3], greater than 100 nM; in data set [4], greater than 100 nM; in [5] it was greater than 100 nM; in data set [6] it was 640 nM. The 50% inhibitory concentration (IC50) was determined as 700 nM at Ephrin type-B receptor 4, 200 nM in [7] and 63 nM on Aurora kinase B. The figures for the bioavailability in data set [8], in data set [17] and in [19] were 2%, 33% and 37%, respectively. Also, the AUC(0-t) at 24 h was found to be 5.1 µM·h in [9]; 62.1 µM·h in data set [10]; 63.3 µM·h in [12]; 35.9 µM·h in data set [13]; 5.9 µM·h in [15]. Also, the clearance in data set [11] was 6.3 mL/min/kg; in data set [14], 20.3 mL/min/kg; in data set [16], 6.3 mL/min/kg. In data set [18], this compound came in with an AUC(0-t) at 6 h of 4.73 µM·h.

As for `Cc1cn2c(-c3cn[nH]c3)cnc2c(Nc2cc(CN3CCC(F)(F)C3)ns2)n1.Cl`, the half-inhibitory concentration (IC50) in [1] was greater than 100 nM; in [2], greater than 100 nM; in data set [3], greater than 100 nM; in data set [4], greater than 100 nM; in data set [5], greater than 100 nM; in data set [6], 1000 nM. In addition, the 50% inhibitory concentration (IC50) against Ephrin type-B receptor 4 was determined as 770 nM; in data set [7], 640 nM; at Aurora kinase B it was 91 nM. Also, the bioavailability in [8] was 2%; in data set [17], 19%; in [19] it was 60%. In addition, the AUC(0-t) at 24 h in data set [9] was found to be 1.7 µM·h; in data set [10], 6.9 µM·h; in data set [12], 12.2 µM·h; in data set [13] it was 9.4 µM·h; in [15] it was 0.9 µM·h. Moreover, the clearance in [11] is 33 mL/min/kg; in data set [14], 127 mL/min/kg; in [16], 33 mL/min/kg. This compound had an AUC(0-t) at 6 h in data set [18] of 1.61 µM·h. The AUC was determined as 9.4 µM·h in [20] and 6.9 µM·h in data set [21].

For the compound `CCN(Cc1cc(Nc2nc(C)cn3c(-c4cn[nH]c4)cnc23)sn1)C(C)(C)CO`, the IC50 in data set [1] was greater than 100 nM; in data set [2], greater than 100 nM; in data set [3], greater than 100 nM; in data set [4], greater than 100 nM; in data set [5] it was greater than 100 nM; against Ephrin type-B receptor 4, 100 nM. Besides, the IC50 on Aurora kinase B stood at 25 nM.
